From PubChem BioAssay (NCI)
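Here, GI50 denotes the concentration required for 50% inhibition of growth. TGI is the concentration that stops growth completely.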

Tests used:
Test in all cases: growth of human tumour cells (NCI), 384-well format
SK-MEL-2 melanoma = test system: SK-MEL-2 melanoma
UO-31 renal = test system: UO-31 renal
CCRF-CEM leukemia = test system: CCRF-CEM leukemia
OVCAR-3 ovarian = test system: OVCAR-3 ovarian
MCF7 breast = test system: MCF7 breast
HS 578T breast = test system: HS 578T breast
SF-295 CNS = test system: SF-295 CNS
SN12C renal = test system: SN12C renal
K-562 leukemia = test system: K-562 leukemia
CAKI-1 renal = test system: CAKI-1 renal
SNB-19 CNS = test system: SNB-19 CNS
HOP-92 NSCLC = test system: HOP-92 NSCLC
PC-3 prostate = test system: PC-3 prostate
DU-145 prostate = test system: DU-145 prostate
SK-OV-3 ovarian = test system: SK-OV-3 ovarian
OVCAR-4 ovarian = test system: OVCAR-4 ovarian
SF-268 CNS = test system: SF-268 CNS
UACC-257 melanoma = test system: UACC-257 melanoma
RXF 393 renal = test system: RXF 393 renal
BT-549 breast = test system: BT-549 breast
HL-60(TB) leukemia = test system: HL-60(TB) leukemia
RPMI-8226 leukemia = test system: RPMI-8226 leukemia
NCI-H23 lung = test system: NCI-H23 lung
M14 melanoma = test system: M14 melanoma
MALME-3M melanoma = test system: MALME-3M melanoma
SK-MEL-28 melanoma = test system: SK-MEL-28 melanoma
NCI-H322M lung = test system: NCI-H322M lung
HCT-116 colon = test system: HCT-116 colon
TK-10 renal = test system: TK-10 renal
UACC-62 melanoma = test system: UACC-62 melanoma
NCI-H226 lung = test system: NCI-H226 lung
EKVX NSCLC = test system: EKVX NSCLC
T-47D breast = test system: T-47D breast
HCT-15 colon = test system: HCT-15 colon
786-0 renal = test system: 786-0 renal
SF-539 CNS = test system: SF-539 CNS
OVCAR-8 ovarian = test system: OVCAR-8 ovarian
MDA-MB-231 breast = test system: MDA-MB-231 breast
KM12 colon = test system: KM12 colon
LOX IMVI melanoma = test system: LOX IMVI melanoma
A549 NSCLC = test system: A549 NSCLC
NCI/ADR-RES ovarian = test system: NCI/ADR-RES ovarian
MDA-MB-468 breast = test system: MDA-MB-468 breast
SW-620 colon = test system: SW-620 colon
OVCAR-5 ovarian = test system: OVCAR-5 ovarian
MOLT-4 leukemia = test system: MOLT-4 leukemia
ACHN renal = test system: ACHN renal
HOP-62 NSCLC = test system: HOP-62 NSCLC
SNB-75 CNS = test system: SNB-75 CNS
HT29 colon = test system: HT29 colon
A498 renal = test system: A498 renal
U251 glioblastoma = test system: U251 glioblastoma
IGROV1 ovarian = test system: IGROV1 ovarian
MDA-MB-435 melanoma = test system: MDA-MB-435 melanoma
NCI-H522 lung = test system: NCI-H522 lung

`O=c1[nH]c(=O)n(C2CC(O)C(CO)O2)cc1C(F)(F)F` (stereo not given) was tested, and the GI50 (SK-MEL-2 melanoma) was > 100 µM, the TGI (SK-MEL-2 melanoma) was > 100 µM and the GI50 (UO-31 renal) was 2.55 µM. The TGI (UO-31 renal) was 14.2 µM, the GI50 (CCRF-CEM leukemia) was 0.234 µM and the TGI (CCRF-CEM leukemia) was 0.469 µM. For the same compound, the GI50 (OVCAR-3 ovarian) was 5.96 µM, the TGI (OVCAR-3 ovarian) was > 100 µM and the GI50 (MCF7 breast) was 0.212 µM. The TGI (MCF7 breast) was > 100 µM, the GI50 (HS 578T breast) was 25.4 µM and the TGI (HS 578T breast) was > 100 µM. It also gave a GI50 (SF-295 CNS) of 3.21 µM, a TGI (SF-295 CNS) of 12.3 µM and a GI50 (SN12C renal) of 1.9 µM. The TGI (SN12C renal) was 9 µM, the GI50 (K-562 leukemia) was 0.705 µM and the TGI (K-562 leukemia) was > 100 µM. The GI50 (CAKI-1 renal) was 4.13 µM, the TGI (CAKI-1 renal) was > 100 µM and the GI50 (SNB-19 CNS) was 3.45 µM. The TGI (SNB-19 CNS) was > 100 µM, the GI50 (HOP-92 NSCLC) was 50.8 µM and the TGI (HOP-92 NSCLC) was > 100 µM. The GI50 (PC-3 prostate) was 80.1 µM, the TGI (PC-3 prostate) was > 100 µM and the GI50 (DU-145 prostate) was 0.53 µM. For the same compound, the TGI (DU-145 prostate) was 8.6 µM, the GI50 (SK-OV-3 ovarian) was 7.07 µM and the TGI (SK-OV-3 ovarian) was > 100 µM. For the same compound, the GI50 (OVCAR-4 ovarian) was 88.5 µM, the TGI (OVCAR-4 ovarian) was > 100 µM and the GI50 (SF-268 CNS) was 2.21 µM. For the same compound, the TGI (SF-268 CNS) was 14.3 µM, the GI50 (UACC-257 melanoma) was 12.8 µM and the TGI (UACC-257 melanoma) was > 100 µM. The GI50 (RXF 393 renal) was 2.48 µM, the TGI (RXF 393 renal) was 87.2 µM and the GI50 (BT-549 breast) was 0.763 µM. The TGI (BT-549 breast) was 9.01 µM, the GI50 (HL-60(TB) leukemia) was 0.171 µM and the TGI (HL-60(TB) leukemia) was 0.394 µM. For the same compound, the GI50 (RPMI-8226 leukemia) was 0.199 µM, the TGI (RPMI-8226 leukemia) was 11.5 µM and the GI50 (NCI-H23 lung) was 2.06 µM. For the same compound, the TGI (NCI-H23 lung) was 11.3 µM, the GI50 (M14 melanoma) was 2.42 µM and the TGI (M14 melanoma) was 16.1 µM. The GI50 (MALME-3M melanoma) was 1.38 µM, the TGI (MALME-3M melanoma) was > 100 µM and the GI50 (SK-MEL-28 melanoma) was 6.78 µM. The TGI (SK-MEL-28 melanoma) was > 100 µM, the GI50 (NCI-H322M lung) was 66 µM and the TGI (NCI-H322M lung) was > 100 µM. The GI50 (HCT-116 colon) was 0.698 µM, the TGI (HCT-116 colon) was > 100 µM and the GI50 (TK-10 renal) was 14.6 µM. The TGI (TK-10 renal) was > 100 µM, the GI50 (UACC-62 melanoma) was 3.25 µM and the TGI (UACC-62 melanoma) was 23 µM. The GI50 (NCI-H226 lung) was 15.3 µM, the TGI (NCI-H226 lung) was 61.2 µM and the GI50 (EKVX NSCLC) was > 100 µM. For the same compound, the TGI (EKVX NSCLC) was > 100 µM, the GI50 (T-47D breast) was 7.65 µM and the TGI (T-47D breast) was > 100 µM. For the same compound, the GI50 (HCT-15 colon) was 4.18 µM, the TGI (HCT-15 colon) was > 100 µM and the GI50 ([…]-0 renal) was 2.94 µM. For the same compound, the TGI (786-0 renal) was 77.6 µM, the GI50 (SF-539 CNS) was 4.81 µM and the TGI (SF-539 CNS) was 20.4 µM. It also gave a GI50 (OVCAR-8 ovarian) of 4.72 µM, a TGI (OVCAR-8 ovarian) of 30.2 µM and a GI50 (MDA-MB-231 breast) of 23.6 µM. For the same compound, the TGI (MDA-MB-231 breast) was > 100 µM, the GI50 (KM12 colon) was 7.51 µM and the TGI (KM12 colon) was > 100 µM. For the same compound, the GI50 (LOX IMVI melanoma) was 0.813 µM, the TGI (LOX IMVI melanoma) was 9.83 µM and the GI50 (A549 NSCLC) was 2.43 µM. The TGI (A549 NSCLC) was > 100 µM, the GI50 (NCI/ADR-RES ovarian) was 3.88 µM and the TGI (NCI/ADR-RES ovarian) was 36.5 µM. The GI50 (MDA-MB-468 breast) was 2.61 µM, the TGI (MDA-MB-468 breast) was 19.5 µM and the GI50 (SW-620 colon) was 1.24 µM. For the same compound, the TGI (SW-620 colon) was > 100 µM, the GI50 (OVCAR-5 ovarian) was 12 µM and the TGI (OVCAR-5 ovarian) was > 100 µM. The GI50 (MOLT-4 leukemia) was 0.197 µM, the TGI (MOLT-4 leukemia) was 0.459 µM and the GI50 (ACHN renal) was 0.519 µM. The TGI (ACHN renal) was 2.95 µM, the GI50 (HOP-62 NSCLC) was 2.27 µM and the TGI (HOP-62 NSCLC) was 11 µM. For the same compound, the GI50 (SNB-75 CNS) was 15.9 µM, the TGI (SNB-75 CNS) was > 100 µM and the GI50 (HT29 colon) was 13.4 µM. The TGI (HT29 colon) was > 100 µM, the GI50 (A498 renal) was 7.94 µM and the TGI (A498 renal) was > 100 µM. For the same compound, the GI50 (U251 glioblastoma) was 4.87 µM, the TGI (U251 glioblastoma) was 79.7 µM and the GI50 (IGROV1 ovarian) was 13 µM. The TGI (IGROV1 ovarian) was > 100 µM, the GI50 (MDA-MB-435 melanoma) was 8.93 µM and the TGI (MDA-MB-435 melanoma) was > 100 µM. For the same compound, the GI50 (NCI-H522 lung) was 21.8 µM and the TGI (NCI-H522 lung) was > 100 µM.
